As for `CN(C)c1cccc(-n2ccc(-c3cccc(C(=O)O)c3)n2)c1` [Compound 164, 3-[1-(3-Dimethylamino-phenyl)-1H-pyrazol-3-yl]-benzoic acid], the melting point is 180 to 183 °C.

In the case of `O=C(O)c1cccc(-c2ccn(-c3cccc(Br)c3)n2)c1` [Compound 165, 3-[1-(3-Bromo-phenyl)-1H-pyrazol-3-yl]-benzoic acid], the melting point is 180 to 183 °C.

`Cc1ccc(-n2ccc(-c3cccc(C(=O)O)c3)n2)cc1` [Compound 166, 3-(1-p-Tolyl-1H-pyrazol-3-yl)-benzoic acid] gave a melting point of 192 to 193 °C.

`Cc1cccc(-n2ccc(-c3cccc(C(=O)O)c3)n2)c1` [Compound 167, 3-(1-m-Tolyl-1H-pyrazol-3-yl)-benzoic acid] registered a melting point of 162 to 164 °C.

`O=C(O)c1cccc(-c2ccn(-c3ccc([N+](=O)[O-])cc3)n2)c1` [Compound 168, 3-[1-(4-Nitro-phenyl)-1H-pyrazol-3-yl]-benzoic acid] yielded a melting point of 280 to 281 °C.

Consider `O=C(O)c1cccc(-n2ccc(-c3ccccc3F)n2)c1` [Compound 169, 3-[3-(2-Fluoro-phenyl)-pyrazol-1-yl]-benzoic acid], for which the melting point was 166 to 167 °C.

On to `Cc1ccc(-c2ccn(-c3cccc(C(=O)O)c3)n2)cc1` [Compound 170, 3-(3-p-Tolyl-pyrazol-1-yl)-benzoic acid], for which the melting point was in the range of 180 to 182 °C.

`COc1cccc(-n2cc(-c3ccc(C(=O)O)cc3)cn2)c1` [Compound 171, 4-[1-(3-Methoxy-phenyl)-1H-pyrazol-4-yl]-benzoic acid] had a melting point of 211 to 212 °C.

`O=C(O)c1cccc(-c2cnn(-c3cccc(OC(F)F)c3)c2)c1` [Compound 172] returned a melting point of 179 to 181 °C.

Regarding `O=C(O)c1ccc(-c2cnn(-c3cccc(OC(F)F)c3)c2)cc1` [Compound 173], the melting point lay in the range of 255 to 257 °C.

Take `COc1cccc(-n2cc(-c3cccc(C(=O)O)c3)cn2)c1` [Compound 174, 3-[1-(3-Methoxy-phenyl)-1H-pyrazol-4-yl]-benzoic acid]: the melting point was 156 to 157 °C.

The compound `O=C(O)c1cccc(-c2ccn(-c3cccc(OCc4ccccc4)c3)n2)c1` [Compound 175, 3-[1-(3-Benzyloxy-phenyl)-1H-pyrazol-3-yl]-benzoic acid] yielded a melting point of 152 to 153 °C.

`O=C(O)c1cccc(-c2ccn(-c3ccc(OCc4ccccc4)cc3)n2)c1` [Compound 176, 3-[1-(4-Benzyloxy-phenyl)-1H-pyrazol-3-yl]-benzoic acid]: the melting point lay within 210 to 212 °C.

`Cc1ccc(-n2cc(-c3cccc(C(=O)O)c3)cn2)cc1` [Compound 177, 3-(1-p-Tolyl-1H-pyrazol-4-yl)-benzoic acid]: the melting point fell in the range of 229 to 231 °C.

For `Cc1ccc(-n2cc(-c3ccc(C(=O)O)cc3)cn2)cc1` [Compound 178, 4-(1-p-Tolyl-1H-pyrazol-4-yl)-benzoic acid], the melting point lay within 280 to 282 °C.

For `O=C(O)c1cccc(-c2cnn(-c3ccc(F)cc3F)c2)c1` [Compound 179, 3-[1-(2,4-Difluoro-phenyl)-1H-pyrazol-4-yl]-benzoic acid], the melting point lay in the range of 200 to 202 °C.

The compound `O=C(O)c1ccc(-c2cnn(-c3ccc(F)cc3F)c2)cc1` [Compound 180, 4-[1-(2,4-Difluoro-phenyl)-1H-pyrazol-4-yl]-benzoic acid] registered a melting point of 258 to 260 °C.

In turn, `O=C(O)c1cccc(-c2cnn(-c3ccc(F)cc3)c2)c1` [Compound 181, 3-[1-(4-Fluoro-phenyl)-1H-pyrazol-4-yl]-benzoic acid] gave a melting point of 235 to 237 °C.

The compound `O=C(O)c1ccc(-c2cnn(-c3ccc(F)cc3)c2)cc1` [Compound 182, 4-[1-(4-Fluoro-phenyl)-1H-pyrazol-4-yl]-benzoic acid] came in with a melting point of 266 to 268 °C.

Regarding `O=C(O)c1cccc(-n2cc3c(n2)-c2cccc(OC(F)F)c2CC3)c1` [Compound 183, 3-(6-Difluoromethoxy-4,5-dihydro-benzo[g]indazol-2-yl)-benzoic acid], the melting point was 235 to 237 °C.

`COc1cccc2c1Cc1cn(-c3cccc(C(=O)O)c3)nc1-2` [Compound 184, 3-(5-Methoxy-4H-indeno[1,2-c]pyrazol-2-yl)-benzoic acid] returned a melting point of 277 to 278 °C.

In turn, `O=C(O)c1cccc(-n2cc3c(n2)-c2cccc(OC(F)F)c2C3)c1` [Compound 185, 3-(5-Difluoromethoxy-4H-indeno[1,2-c]pyrazol-2-yl)-benzoic acid] had a melting point of 240 to 241 °C.

In turn, `O=C(O)c1ccc(-n2cc3c(n2)-c2cccc(OC(F)F)c2CC3)cc1` [Compound 186, 4-(6-Difluoromethoxy-4,5-dihydro-benzo[g]indazol-2-yl)-benzoic acid] yielded a melting point of 282 to 283 °C.

The compound `COc1cccc2c1Cc1cn(-c3ccc(C(=O)O)cc3)nc1-2` [Compound 187, 4-(5-Methoxy-4H-indeno[1,2-c]pyrazol-2-yl)-benzoic acid] showed a melting point of 311 to 313 °C.

`O=C(O)c1ccc(-n2cc3c(n2)-c2cccc(OC(F)F)c2C3)cc1` [Compound 188, 4-(5-Difluoromethoxy-4H-indeno[1,2-c]pyrazol-2-yl)-benzoic acid]: the melting point fell in the range of 277 to 278 °C.

In turn, `COc1ccccc1-n1ccc(-c2ccc(C(=O)O)cc2)c1` [Compound 193] displayed a melting point of 200 to 202 °C.

Compound `Cc1cccc(-n2ccc(-c3ccc(C(=O)O)cc3)c2)c1` [Compound 194, 4-(1-m-Tolyl-1H-pyrrol-3-yl)-benzoic acid] displayed a melting point of 212 to 213 °C.

For the compound `Cc1ccccc1-n1ccc(-c2ccc(C(=O)O)cc2)c1` [Compound 195, 4-(1-o-Tolyl-1H-pyrrol-3-yl)-benzoic acid], the melting point was in the range of 208 to 209 °C.

Consider `O=C(O)c1ccc(-c2ccn(-c3ccc(Cl)cc3)c2)cc1` [Compound 196, 4-[1-(4-Chloro-phenyl)-1H-pyrrol-3-yl]-benzoic acid], for which the melting point is above 350 °C.

In turn, `O=C(O)c1ccc(-c2ccn(-c3ccccc3Cl)c2)cc1` [Compound 197, 4-[1-(2-Chloro-phenyl)-1H-pyrrol-3-yl]-benzoic acid] yielded a melting point of 200 to 202 °C.

For the compound `O=C(O)c1cccc(-c2ccn(-c3ccccc3Cl)c2)c1` [Compound 198, 3-[1-(2-Chloro-phenyl)-1H-pyrrol-3-yl]-benzoic acid], the melting point is 198 to 200 °C.

Take `O=C(O)c1ccc(-c2ccn(-c3ccccc3OC(F)(F)F)c2)cc1` [Compound 199, 4-[1-(2-Trifluoromethoxy-phenyl)-1H-pyrrol-3-yl]-benzoic acid]: the melting point fell in the range of 164 to 165 °C.

As for `COc1ccccc1-n1ccc(-c2cccc(C(=O)O)c2)c1` [Compound 200, 3-[1-(2-Methoxy-phenyl)-1H-pyrrol-3-yl]-benzoic acid], the melting point was above 350 °C.

With `Cc1ccc(-c2cn(-c3ccc(C(=O)O)cc3)nn2)cc1` [Compound 201, 4-(4-p-Tolyl-[1,2,3]triazol-1-yl)-benzoic acid], the melting point is 302 to 303 °C.

Regarding `O=C(O)c1ccc(-n2cc(-c3ccc(C(F)(F)F)cc3)nn2)cc1` [Compound 202, 4-[4-(4-Trifluoromethyl-phenyl)-[1,2,3]triazol-1-yl]-benzoic acid], the melting point fell in the range of 305 to 306 °C.

In turn, `COc1ccc(-c2cn(-c3ccc(C(=O)O)cc3)nn2)cc1` [Compound 203, 4-[4-(4-Methoxy-phenyl)-[1,2,3]triazol-1-yl]-benzoic acid] yielded a melting point of 294 to 295 °C.

For `COc1cccc(-c2cn(-c3ccc(C(=O)O)cc3)nn2)c1` [Compound 204, 4-[4-(3-Methoxyphenyl)-[1,2,3]triazol-1-yl]benzoic acid], the melting point was 276 to 277 °C.

In turn, `O=C(O)c1ccc(-n2cc(-c3ccc4c(c3)OCO4)cn2)cc1` [Compound 205, 4-(4-Benzo[1,3]dioxol-5-yl-pyrazol-1-yl)-benzoic acid] had a melting point of 286 to 288 °C.

In turn, `O=C(O)c1ccc(-n2cc(-c3cccc(O)c3)cn2)cc1` [Compound 206, 4-[4-(3-Hydroxy-phenyl)-pyrazol-1-yl]-benzoic acid] had a melting point of 273 to 275 °C.

`O=C(O)c1cccc(-n2cc(-c3cccc(O)c3)cn2)c1` [Compound 207, 3-[4-(3-Hydroxy-phenyl)-pyrazol-1-yl]-benzoic acid] returned a melting point of 272 to 274 °C.

For the compound `O=C(O)c1ccc(-n2cc(-c3cccc(OC(F)(F)F)c3)cn2)cc1` [Compound 208, 4-[4-(3-Trifluoromethoxy-phenyl)-pyrazol-1-yl]-benzoic acid], the melting point was in the range of 225 to 227 °C.

With `O=C(O)c1cccc(-n2cc(-c3cccc(OC(F)(F)F)c3)cn2)c1` [Compound 209, 3-[4-(3-Trifluoromethoxy-phenyl)-pyrazol-1-yl]-benzoic acid], the melting point was 166 to 168 °C.

Compound `O=C(O)c1cccc(-n2cc(-c3cccc(Cl)c3)cn2)c1` [Compound 210, 3-[4-(3-Chloro-phenyl)-pyrazol-1-yl]-benzoic acid] returned a melting point of 178 to 180 °C.

`O=C(O)c1ccc(-n2cc(-c3cccc(Cl)c3)cn2)cc1` [Compound 211, 4-[4-(3-Chloro-phenyl)-pyrazol-1-yl]-benzoic acid] registered a melting point of 252 to 255 °C.

Turning to `O=C(O)c1ccc(-n2cc(-c3cccc(F)c3)cn2)cc1` [Compound 212, 4-[4-(3-Fluoro-phenyl)-pyrazol-1-yl]-benzoic acid], the melting point lay within 261 to 265 °C.

As to `O=C(O)c1cccc(-n2cc(-c3cccc(F)c3)cn2)c1` [Compound 213, 3-[4-(3-Fluoro-phenyl)-pyrazol-1-yl]-benzoic acid], the melting point is 228 to 230 °C.

For `O=C(O)c1ccc(-n2cc(-c3cccc(OC(F)F)c3)cn2)cc1` [Compound 214], the melting point lay in the range of 220 to 222 °C.

For `O=C(O)c1ccc(-n2cc(-c3cccc(Oc4ccccc4)c3)cn2)cc1` [Compound 215, 4-[4-(3-Phenoxy-phenyl)-pyrazol-1-yl]-benzoic acid], the melting point was in the range of 211 to 213 °C.

Take `O=C(O)c1cccc(-n2cc(-c3cccc(Oc4ccccc4)c3)cn2)c1` [Compound 216, 3-[4-(3-Phenoxy-phenyl)-pyrazol-1-yl]-benzoic acid]: the melting point lay within 164 to 165 °C.

For orientation: melting point means the temperature, or range, at which the solid turns liquid.
